Test systems include A549; ACHN; CAKI-1; HCC 2998; HCT-116; HCT-15; HL-60; HOP-62; M14; MDA-MB-231; NCI-H522; NCI/ADR-RES; RXF 393; SF-268; SK-OV-3; SN12C; SNB-19; SW-620; PC-3.
Holding throughout (test): inhibition of tumour cell growth, NCI panel, 48 h

Molecules are shown by their SMILES.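 1) Cells in 96-well plates. 2) Compound, 48 h, 5 concentrations. 3) Linear interpolation between surrounding doses. 4) Unreached endpoint = highest concentration. Here, GI50 denotes the concentration required for 50% inhibition of growth.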 Calls of active or inactive are those of the source. Rule as the data show it: active = GI50 up to about 1.1 µM and inactive = higher. A value given as a limit tells only on which side of the number the result lay.

On to `CC(=O)N(C)c1cc(NCc2ccccc2)ccc1OCc1ccccc1`, for which the GI50 was 18.3 µM (inactive) in the experiment with A549; 17.3 µM (inactive) in the experiment on ACHN; 17.7 µM (inactive) in the experiment on CAKI-1; 18.8 µM (inactive) in the experiment on HCC 2998; 31.8 µM (inactive) in the experiment with HCT-116; 19.1 µM in the experiment with HCT-15. Also, the GI50 is 26 µM (inactive) in the experiment on HL-60; 33 µM (inactive) with HOP-62; 22.1 µM (inactive) in the experiment with M14; 15.8 µM (inactive) with MDA-MB-231; 17.9 µM (inactive) in the experiment on NCI-H522; 20.2 µM (inactive) with NCI/ADR-RES. The GI50 with RXF 393 is 14.8 µM (inactive); in the experiment on SF-268 it was 14.7 µM (inactive); in the experiment on SK-OV-3 it was 21.7 µM (inactive); in the experiment with SN12C, 17.5 µM (inactive); in the experiment on SNB-19, 17.9 µM (inactive); in the experiment with SW-620, 24.9 µM (inactive).
For the compound `N#Cc1c(=O)c2ccccc2n2c1[nH]c1ccccc12`, the GI50 with A549 was 58.1 µM (inactive); with ACHN, 58.6 µM (inactive); in the experiment on CAKI-1, 35.2 µM (inactive); in the experiment on HCC 2998, 58.3 µM (inactive); in the experiment on HCT-116 it was 30.5 µM (inactive); in the experiment with HCT-15, 17.6 µM. For the same compound, the GI50 in the experiment on HL-60 was 18.7 µM (inactive); in the experiment on HOP-62 it was > 100 µM (inactive); in the experiment on M14 it was 57.5 µM (inactive); in the experiment on MDA-MB-231, 54.6 µM (inactive); with NCI/ADR-RES, 15.3 µM (inactive); in the experiment on PC-3, 29 µM (inactive). Moreover, the GI50 was 4.44 µM (inactive) in the experiment with RXF 393; 31.5 µM (inactive) in the experiment with SF-268; 32.3 µM (inactive) with SN12C; 42.5 µM (inactive) with SNB-19; 48.5 µM (inactive) in the experiment with SW-620.
In the case of `N#Cc1c(N2CCOCC2)[nH]c(=O)c(C(c2c(Cl)cccc2Cl)c2c(O)c(C#N)c(N3CCOCC3)[nH]c2=O)c1O`, the GI50 in the experiment with A549 is 77.6 µM (inactive); in the experiment with ACHN, 16.1 µM (inactive); in the experiment on CAKI-1, 18.1 µM (inactive); with HCC 2998, 12.5 µM (inactive); in the experiment on HCT-116, 28.3 µM (inactive); in the experiment on HCT-15, 15 µM. The GI50 was 12.9 µM (inactive) in the experiment on HL-60; 22.1 µM (inactive) in the experiment on HOP-62; 17.9 µM (inactive) with M14; 16.6 µM (inactive) with MDA-MB-231; 13.4 µM (inactive) in the experiment on NCI-H522; 27.4 µM (inactive) with NCI/ADR-RES. Further, the GI50 in the experiment with PC-3 was 17.8 µM (inactive); with RXF 393 it was 14.1 µM (inactive); in the experiment with SF-268, 19.5 µM (inactive); in the experiment with SN12C it was 20.1 µM (inactive); with SNB-19, 16.1 µM (inactive); in the experiment on SW-620, 17.7 µM (inactive).
Regarding `COc1cc2nc(-c3cccs3)nc(N3CCN(c4ccccc4C(F)(F)F)CC3)c2cc1OC`, the GI50 with A549 is > 100 µM (inactive); with ACHN, > 100 µM (inactive); with CAKI-1, 25.2 µM (inactive); in the experiment with HCC 2998, > 100 µM (inactive); in the experiment on HCT-116 it was > 100 µM (inactive); in the experiment on HCT-15 it was more than 100 µM. Moreover, the GI50 with HL-60 was 3.87 µM (inactive); with HOP-62, > 100 µM (inactive); in the experiment with M14 it was > 100 µM (inactive); in the experiment with MDA-MB-231, > 100 µM (inactive); in the experiment on NCI-H522, 90.4 µM (inactive); in the experiment with NCI/ADR-RES, > 100 µM (inactive). Also, the GI50 in the experiment with PC-3 was 79.3 µM (inactive); in the experiment with SF-268 it was 60.3 µM (inactive); in the experiment on SK-OV-3, > 100 µM (inactive); in the experiment on SN12C it was > 100 µM (inactive); in the experiment on SNB-19, > 100 µM (inactive); in the experiment with SW-620 it was > 100 µM (inactive).
